From the supplement of paper PMC12592484

Tests used:
Assay in all cases: drug sensitivity score (DSS2, normalised partial AUC of dose-response, 72 h CellTiter-Glo viability) (DSS (dimensionless)); higher = more sensitive (stronger growth inhibition / cytotoxicity); extreme values may be limits of the assay
[1] = test system: CAF#3 (primary prostate cancer-associated fibroblasts of myCAF-like type)
In short: (§1)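 Five doses spanning a 10,000-fold range were pre-dispensed into 384-well plates, into which low-passage primary prostate cancer-associated fibroblasts, PF179T, WPMY-1, LNCaP and 22Rv1 cells were seeded. After 72 h, CellTiter-Glo 2.0 luminescence measured viability, scaled to vehicle and positive-control wells. Higher values of the drug sensitivity score, a BREEZE-computed partial area under the fitted logistic dose–response curve divided by the log of the upper asymptote, mean greater sensitivity.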

[2] = test system: 22Rv1
In short: as §1

[3] = test system: LNCAP
In short: as §1

[4] = test system: CAF#4 (primary prostate cancer-associated fibroblasts of iCAF-like type)
In short: as §1

[5] = test system: CAF#6 (primary prostate cancer-associated fibroblasts of iCAF-like type)
In short: as §1

[6] = test system: CAF#2 (primary prostate cancer-associated fibroblasts of iCAF-like type)
In short: as §1

[7] = test system: CAF#5 (primary prostate cancer-associated fibroblasts of myCAF-like type)
In short: as §1

[8] = test system: CAF#7 (primary prostate cancer-associated fibroblasts of myCAF-like type)
In short: as §1

[9] = test system: CAF#1 (primary prostate cancer-associated fibroblasts of myCAF-like type)
In short: as §1

[10] = test system: PF179T
In short: as §1

[11] = test system: WPMY-1
In short: as §1

| SMILES | drug sensitivity score [1] | drug sensitivity score [2] | drug sensitivity score [3] | drug sensitivity score [4] | drug sensitivity score [5] | drug sensitivity score [6] | drug sensitivity score [7] | drug sensitivity score [8] | drug sensitivity score [9] | drug sensitivity score [10] | drug sensitivity score [11] |
| --- | --- | --- | --- | --- | --- | --- | --- | --- | --- | --- | --- |
| C=CCn1c(=O)c2cnc(Nc3ccc(N4CCN(C)CC4)cc3)nc2n1-c1cccc(C(C)(C)O)n1 [Adavosertib] (tested concentration range 1-10000 nM) | 2.7 | 11.9 | 17 | 8.9 | 4 | 10.3 | 5.9 | 7.3 | 7.3 | 10.4 | 21.5 |
| CN(C)C/C=C/C(=O)Nc1cc2c(Nc3ccc(F)c(Cl)c3)ncnc2cc1O[C@H]1CCOC1 [Afatinib] (tested concentration range 0.1-1000 nM) | 0 | 3.4 | 2.7 | 0 | 0 | 0.3 | 0 | 0 | 0.3 | 0 | 0 |
| Cn1ncc(Cl)c1-c1cc(C(=O)N[C@H](CN)Cc2cccc(F)c2)sc1Cl [Afuresertib] (tested concentration range 0.1-1000 nM) | 0 | 4.6 | 17 | 1.7 | 0.6 | 1.5 | 2 | 0 | 3.2 | 0.1 | 0.6 |
| CCc1cc2c(cc1N1CCC(N3CCOCC3)CC1)C(C)(C)c1[nH]c3cc(C#N)ccc3c1C2=O [Alectinib] (tested concentration range 0.1-1000 nM) | 0 | 0.2 | 0.5 | 0 | 0 | 0.2 | 0.3 | 0 | 1 | 0 | 0 |
| COc1cc(Nc2ncc3c(n2)-c2ccc(Cl)cc2C(c2c(F)cccc2OC)=NC3)ccc1C(=O)O [Alisertib] (tested concentration range 1-10000 nM) | 3.3 | 0 | 9.6 | 4.5 | 1.2 | 9.4 | 6 | 3.5 | 4.9 | 7.6 | 16.3 |
| Oc1ncnc2[nH]ncc12 [Allopurinol] (tested concentration range 1-10000 nM) | 0 | 0 | 0 | 0 | 0 | 0 | 0 | 0 | 0 | 0 | 0 |
| Cc1nc(NC(=O)N2CCC[C@H]2C(N)=O)sc1-c1ccnc(C(C)(C)C(F)(F)F)c1 [Alpelisib] (tested concentration range 0.2-2500 nM) | 2.1 | 4.8 | 1.1 | 2.6 | 3 | 2.5 | 3.1 | 3.4 | 2.9 | 0 | 1.3 |
| CN1CC[C@H](c2c(O)cc(O)c3c(=O)cc(-c4ccccc4Cl)oc23)[C@H](O)C1 [Alvocidib] (tested concentration range 1-10000 nM) | 16.5 | 17.4 | 18.2 | 12.7 | 13.9 | 16.8 | 15.4 | 15.4 | 15.9 | 10 | 16.5 |
| CCN(CC)CCNC(=O)c1c(C)[nH]c(/C=C2\C(=O)Nc3ccc(-c4csc(-c5ccccc5)n4)cc32)c1C [Amcasertib] (tested concentration range 1-10000 nM) | 0 | 6.8 | 3.5 | 7.1 | 0 | 2.3 | 6.6 | 0 | 7 | 0 | 0 |
| CCC1(c2ccc(N)cc2)CCC(=O)NC1=O (stereo unspecified) [Aminoglutethimide] (tested concentration range 1-10000 nM) | 0.2 | 0 | 0.3 | 0 | 0 | 0 | 0 | 0 | 0 | 0 | 0 |
| COc1cc(NS(C)(=O)=O)ccc1Nc1c2ccccc2nc2ccccc12 [Amsacrine] (tested concentration range 1-10000 nM) | 3.1 | 10.1 | 17 | 2.4 | 3.8 | 6.7 | 2.2 | 7.1 | 3.2 | 7.7 | 11.1 |
| O=C1CN2Cc3c(ccc(Cl)c3Cl)N=C2N1 [Anagrelide] (tested concentration range 1-10000 nM) | 7.2 | 0 | 0 | 0 | 0 | 0.6 | 0.6 | 8.8 | 8.4 | 0 | 0 |
| CC(C)(C#N)c1cc(Cn2cncn2)cc(C(C)(C)C#N)c1 [Anastrozole] (tested concentration range 1-10000 nM) | 0 | 0 | 0 | 0 | 0 | 0 | 0 | 0 | 0 | 0 | 0 |
| CNC(=O)c1ccc(N2C(=S)N(c3cnc(C#N)c(C(F)(F)F)c3)C(=O)C23CCC3)cc1F [Apalutamide] (tested concentration range 1-10000 nM) | 0.8 | 0 | 2.7 | 0 | 0.2 | 0.8 | 0.1 | 0 | 0.2 | 0.9 | 0 |
| N#CC1(c2ccc(NC(=O)c3cccnc3NCc3ccncc3)cc2)CCCC1 [Apatinib] (tested concentration range 1-10000 nM) | 1.8 | 0 | 5.8 | 0 | 2.6 | 0 | 0 | 2.2 | 0 | 0 | 0 |
| O=C(Nc1ccc(OC(F)(F)Cl)cc1)c1cnc(N2CC[C@@H](O)C2)c(-c2cc[nH]n2)c1 [Asciminib] (tested concentration range 0.1-1000 nM) | 0 | 0 | 0 | 0 | 0 | 0 | 0 | 0 | 0.5 | 0 | 0 |
| CC(C)c1c(C(=O)Nc2ccccc2)c(-c2ccccc2)c(-c2ccc(F)cc2)n1CC[C@@H](O)C[C@@H](O)CC(=O)O [Atorvastatin] (tested concentration range 1-10000 nM) | 6.1 | 3.3 | 1.1 | 3.5 | 5.2 | 8.4 | 5.4 | 5.9 | 4.7 | 3 | 2.7 |
| CC(=O)OC[C@H]1O[C@@H]([S-])[C@H](OC(C)=O)[C@@H](OC(C)=O)[C@@H]1OC(C)=O.CCP(CC)CC.[Au+] [Auranofin] (tested concentration range 0.2-2500 nM) | 5.1 | 5.7 | 13.1 | 3.3 | 5.4 | 5 | 3.5 | 7.2 | 3.7 | 0 | 5.2 |
| Cc1nc2cccc(N)c2c(=O)n1C1CCC(=O)NC1=O (stereo unspecified) [Avadomide] (tested concentration range 1-10000 nM) | 0.4 | 0 | 0 | 2.2 | 0 | 0 | 0 | 0 | 0 | 0.1 | 0 |
| CNC(=O)c1ccccc1Sc1ccc2c(/C=C/c3ccccn3)n[nH]c2c1 [Axitinib] (tested concentration range 1-10000 nM) | 5.5 | 1.6 | 5.7 | 4.2 | 3.3 | 5.1 | 2 | 5.5 | 2.8 | 0.8 | 4.9 |
| Nc1ncn([C@@H]2O[C@H](CO)[C@@H](O)[C@H]2O)c(=O)n1 [Azacitidine] (tested concentration range 1-10000 nM) | 1.8 | 2.8 | 2.4 | 2.3 | 2.2 | 3 | 0.5 | 3.2 | 2.3 | 2.6 | 2 |
| Cc1cc(-c2nc(-c3ccc(OC(F)(F)F)cc3)no2)nn1Cc1ccnc(N2CCN(C3CC3)CC2)c1 [BAY 87-2243] (tested concentration range 0.1-1000 nM) | 0.5 | 19.8 | 24.8 | 0 | 0 | 1.6 | 0 | 0 | 0 | 26.4 | 23.2 |
| O=C(Nc1cccc(Nc2ncc(Br)c(NCCc3cnc[nH]3)n2)c1)N1CCCC1 [BX-912] (tested concentration range 1-10000 nM) | 7.6 | 1.9 | 3.5 | 3.1 | 6.2 | 7.5 | 8.1 | 10 | 6.1 | 7.6 | 9.9 |
| CCS(=O)(=O)N1CC(CC#N)(n2cc(-c3ncnc4[nH]ccc34)cn2)C1 [Baricitinib] (tested concentration range 0.2-2500 nM) | 0 | 0 | 0 | 0 | 0 | 0 | 0 | 0 | 0 | 0 | 0 |
| O=C(/C=C/c1cccc(S(=O)(=O)Nc2ccccc2)c1)NO [Belinostat] (tested concentration range 1-10000 nM) | 4.8 | 19.6 | 19.5 | 10 | 6.8 | 12.3 | 8.6 | 6.6 | 10 | 9.8 | 18.5 |
| Nc1nc(Nc2ccc3c(c2)CC[C@@H](N2CCCC2)CC3)nn1-c1cc2c(nn1)-c1ccccc1CCC2 [Bemcentinib] (tested concentration range 1-10000 nM) | 8.6 | 5 | 5.4 | 1.8 | 5.7 | 3.2 | 4.1 | 2.7 | 2.5 | 5 | 8.5 |
